Experimental data reported in article PMC8776092, “A Toxoplasma gondii Oxopurine Transporter Binds Nucleobases and Nucleosides Using Different Binding Modes” (International Journal of Molecular Sciences, 2022).
“And” between values parts separate entries of the source, which are not always exact repeats. Equal entries are not always repeated. Where two headings read alike, the source gives them in different places.

Experiments:
Tg244440 [1] = target: T1, Tg244440 (Toxoplasma gondii, UniProt A0A125YNC9); assay: [3H]-guanine uptake and its inhibition in T. brucei TbNB-KO procyclics expressing Tg244440 (clone F5); type: cell-based; conditions: for ΔG^0 (Gibbs free energy of interaction): calculated from Km or Ki, ΔG0 = −RTln(Ki); for Ki: competition with 50 nM [3H]-guanine, Cheng-Prusoff; for Rate of [3H]-guanine uptake, +Tg244440: clone F5
T1 sequence (A0A125YNC9 1-462): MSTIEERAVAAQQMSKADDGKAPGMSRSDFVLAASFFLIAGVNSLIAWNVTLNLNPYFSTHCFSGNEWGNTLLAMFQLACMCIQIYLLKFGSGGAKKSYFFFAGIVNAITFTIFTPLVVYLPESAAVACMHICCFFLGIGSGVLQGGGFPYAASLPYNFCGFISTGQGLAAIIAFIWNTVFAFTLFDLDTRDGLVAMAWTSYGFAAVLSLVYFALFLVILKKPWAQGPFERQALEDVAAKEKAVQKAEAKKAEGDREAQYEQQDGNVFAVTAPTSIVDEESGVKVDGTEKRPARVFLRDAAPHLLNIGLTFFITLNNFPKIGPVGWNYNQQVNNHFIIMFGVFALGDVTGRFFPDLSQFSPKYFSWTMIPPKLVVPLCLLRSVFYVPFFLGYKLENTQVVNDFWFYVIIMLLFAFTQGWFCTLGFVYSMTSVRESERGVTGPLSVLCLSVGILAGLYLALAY
Experimental: (§1) Briefly, PCF cells of T. brucei in logarithmic growth were harvested by centrifugation at 1000× g for 10 min, washed twice in AB and then resuspended in fresh buffer at a final density of 10^8 cells/mL. […] Immediately after finishing the assay, all tubes were flash-frozen in liquid nitrogen and the cell pellets were cut into scintillation vials and lysed with a solution of 2% SDS for one hour under agitation. Then, 3 mL of scintillation fluid (Scintilogic U, Lablogic) was added to each vial and left agitating overnight on a rocking platform. The next morning, the vials were vigorously shaken to ensure optimal mixing and the scintillation was measured in a 300SL (Hidex) scintillation counter. All assays were carried out in triplicate. All experimental data such as Km, Ki and Vmax values are the average and SEM of at least three separate experiments, each in triplicate, unless otherwise indicated.
(§2) Background scintillation was measured in vials containing no cells or radiolabeled substrate, and counts associated with extracellular radiolabel were calculated from samples where cells were briefly incubated with the same concentration of radiolabel, but in the presence of saturating concentrations of non-radiolabeled substrate before centrifugation through oil. The average of the three control replicates was subtracted from each data point.

TgAT2 = target: TgAT2; parameters: method as in PMID 12865082; conditions: cited from earlier work; for Km: tachyzoites
T. gondii = conditions: cited from earlier work
TgAT1 = conditions: cited from earlier work
inosine transporter = conditions: tachyzoites; read-out: apparent Km; cited from earlier work
hENT1 = system: hENT1; parameters: method as in PMID 23592612, PMID 6363411, PMID 10722669, PMID 8982282; conditions: cited from earlier work
Tg244440 [2] = type: cell-based, Toxoplasma gondii; conditions: 0.1 μM [3H]-permeant, 60 s, clones B11, F5 and G10
Experimental: (§3) Figure 2 Uptake of radiolabelled nucleosides and nucleobases by in three clonal lines of T. brucei NB-KO procyclics, expressing Tg244440 in pHD1336. EV, empty vector control. Radiolabel concentration was 0.1 µM and uptake was measured over 60 s, in triplicate (average and SEM shown). Statistically significant differences between the control and the Tg244440-expressing cells were established using Student’s unpaired t-test. *, p < 0.05, **, p < 0.01, ***, p < 0.001.
as §1

Tg244440 [3] = target: T1, Tg244440; conditions: Xenopus laevis oocytes, 10 µM [3H]-adenosine; cited from earlier work
human adenosine kinase = system: human adenosine kinase; parameters: method as in PMID 23592612, PMID 6363411, PMID 10722669, PMID 8982282; conditions: cited from earlier work
[4] = system: human adenosine deaminase; parameters: method as in PMID 23592612, PMID 6363411, PMID 10722669, PMID 8982282; conditions: cited from earlier work
Tg244440 [5] = target: T1, Tg244440; type: cell-based; conditions: 0.1 μM [3H]-permeant, 60 s, clones B11, F5 and G10
Experimental: as §3, §1

[6] = system: TbNBT-KO cells transfected with the empty vector (EV); assay: [3H]-guanine and [3H]-hypoxanthine uptake in TbNBT-KO cells transfected with the empty vector (EV); type: cell-based, Trypanosoma brucei; conditions: empty vector cells
Experimental: as §1, §2

O=c1[nH]cnc2nc[nH]c12 = assay: cells, lysate or membranes; conditions: other: 0.10 µM [3H]-hypoxanthine, 30 s, Michaelis-Menten; pH 7.3
[7] = substrate: Nc1nc2nc[nH]c2c(=O)[nH]1; assay: [3H]-guanine uptake and its inhibition in T. brucei TbNB-KO procyclics expressing Tg244440 (clone F5); type: cell-based, Toxoplasma gondii; conditions: other: 0.05 µM [3H]-guanine, 30 s, Michaelis-Menten; pH 7.3
[8] = [Permeant] 25 μM (unlabelled guanine to saturate the transporter)

Nc1ncnc2c1ncn2[C@@H]1O[C@H](CO)[C@@H](O)[C@@H]1O [Adenine arabinoside (Ara-A), Adenine arabinoside]
Affinity for Tg244440 (in words) (Tg244440 [1]): low affinity | ΔG^0 (Gibbs free energy of interaction) (Tg244440 [1]): -4.78 kcal/mol | Ki (Tg244440 [1]; 30 s, read-out: Ki): 310 ± 14 µM | δ(ΔG^0) relative to Adenosine (Tg244440 [1]): 0.896 kcal/mol | Ki (TgAT2): 2.9 µM | Activity against T. gondii (in words) (T. gondii): moderately active

OC[C@@H]1CC[C@H](n2cnc3c(O)ncnc32)O1 [2′,3′-dideoxyinosine]
Ki (Tg244440 [1]; Ki, 30 s): 698 ± 52 µM | ΔG^0 (Gibbs free energy of interaction) (Tg244440 [1]): -4.3 kcal/mol | δ(ΔG^0) relative to Inosine (Tg244440 [1]): 3.06 kcal/mol | Activity against T. gondii (in words) (T. gondii): active in vitro and in vivo

O=c1[nH]cnc2c1ncn2[C@@H]1O[C@H](CO)[C@@H](O)[C@H]1O [Inosine]
Km (TgAT1; for its substrates): > 100 µM | Ki (Tg244440 [1]; Ki, 30 s): 4.05 ± 1.37 µM | ΔG^0 (Gibbs free energy of interaction) (Tg244440 [1]): -7.36 kcal/mol | δ(ΔG^0) relative to Hypoxanthine (Tg244440 [1]): 0.335 kcal/mol | Km (TgAT2): 0.77 µM | Km (inosine transporter): 81 µM

Nc1ncnc2c1ncn2[C@@H]1O[C@H](CO)[C@@H](O)[C@H]1O [Adenosine]
Km (hENT1): 40 to 60 µM | Uptake of radiolabelled permeant in Tg244440 clones compared to empty vector (Tg244440 [2]): No difference | Km (Tg244440 [3]): 114 ± 37 µM | Km (TgAT1; adenosine transport): 120 µM | Km (TgAT1; for its substrates): > 100 µM | Affinity for Tg244440 (in words) (Tg244440 [1]): Low affinity | Ki (Tg244440 [1]; Ki, 30 s): 68.2 ± 2.86 µM | ΔG^0 (Gibbs free energy of interaction) (Tg244440 [1]): -5.69 kcal/mol | Fold higher affinity than adenine (Tg244440 [1]; ratio of Ki values): 6 fold | Fold lower affinity than inosine and guanosine (Tg244440 [1]; ratio of Ki values): about 20 fold | δ(ΔG^0) relative to Adenine (Tg244440 [1]): -1.08 kcal/mol | δ(ΔG^0) relative to Adenine (Tg244440 [1]; listed as adenosine): 1.08 kcal/mol | Summation of the Gibbs free energy of the proposed interactions (binding model), Σ (Tg244440 [1]; substrate binding model, Figure 5, for adenosine base group only): -4.97 kcal/mol | Km (TgAT2): 0.49 µM | Km (human adenosine kinase): 0.2 to 0.4 µM | Km [4]: 49 µM

OC[C@H]1O[C@@H](n2ccc3c(O)ncnc32)C[C@@H]1O [7-deaza-2′-deoxyinosine]
Ki (Tg244440 [1]; Ki, 30 s): 52.3 ± 8.4 µM | ΔG^0 (Gibbs free energy of interaction) (Tg244440 [1]): -5.83 kcal/mol | δ(ΔG^0) relative to 2′-Deoxyinosine (Tg244440 [1]; relative to 2′-Deoxyinosine): -0.478 kcal/mol

O=c1[nH]c(=O)c2nc[nH]c2[nH]1 [Xanthine]
Ki (Tg244440 [1]; Ki, 30 s): 42.4 ± 4.2 µM | ΔG^0 (Gibbs free energy of interaction) (Tg244440 [1]): -5.95 kcal/mol | δ(ΔG^0) relative to Guanine (Tg244440 [1]): 2.08 kcal/mol | δ(ΔG^0) relative to Hypoxanthine (Tg244440 [1]): 1.74 kcal/mol

Nc1nc2c(ncn2[C@@H]2O[C@H](CO)[C@@H](O)[C@H]2O)c(=O)[nH]1 [Guanosine]
Ki (Tg244440 [1]; Ki, 30 s): 3.3 ± 0.3 µM | ΔG^0 (Gibbs free energy of interaction) (Tg244440 [1]): -7.48 kcal/mol | δ(ΔG^0) relative to Guanine (Tg244440 [1]): 0.574 kcal/mol

COc1ncnc2c1c(Cl)cn2[C@@H]1O[C@H](CO)[C@@H](O)[C@H]1O [6-O-methyl,7-deaza,7-Cl-inosine]
ΔG^0 (Gibbs free energy of interaction) (Tg244440 [1]): -6 kcal/mol | Ki (Tg244440 [1]; 30 s, read-out: Ki): 39.6 ± 2.8 µM | δ(ΔG^0) relative to Inosine (Tg244440 [1]): 1.36 kcal/mol

Cc1cn([C@H]2C[C@H](O)[C@@H](CO)O2)c(=O)[nH]c1=O [thymidine]
Uptake of radiolabelled permeant in Tg244440 clones compared to empty vector (Tg244440 [5]): only slightly increased

Nc1nc2nc[nH]c2c(=O)[nH]1 [Guanine]
Rate of [3H]-guanine uptake, EV ([6]; [Permeant] 0.05 μM, over 60 s): 0.00059 pmol(10^7 Cells)^−1s^−1 | Rate of [3H]-guanine uptake, EV [6, 8]: 0.0015 ± 0.0002 pmol(10^7 Cells)^−1s^−1 | Uptake of radiolabelled permeant in Tg244440 clones compared to empty vector (Tg244440 [5]): highly significant increases | Rate of [3H]-guanine uptake, +Tg244440 (Tg244440 [1]; [Permeant] 0.05 μM, over 60 s): 0.037 ± 0.003 pmol(10^7 Cells)^−1s^−1 | Rate of [3H]-guanine uptake, +Tg244440 (Tg244440 [1]; [Permeant] 0.05 μM, over 60 s, listed as guanine): 0.037 pmol(10^7 Cells)^−1s^−1 | Rate of [3H]-guanine uptake, +Tg244440 (Tg244440 [1]; [8]): 0.00092 ± 0.00067 pmol(10^7 Cells)^−1s^−1 | Sum of δ(ΔG^0) for the 7-deaza and 9-deaza analogues (Tg244440 [1]; analogues of the named nucleobase): 14.2 kJ/mol | ΔG^0 (Gibbs free energy of interaction) (Tg244440 [1]): -8.05 kcal/mol

O=c1ccn([C@@H]2O[C@H](CO)[C@@H](O)[C@H]2O)c(=O)[nH]1 [uridine]
Inhibition of [3H]-guanine transport by pyrimidines (Tg244440 [1]; inhibitor at 1 mM, 0.1 μM [3H]-guanine, 30 s): significant inhibition

Cn1c(=O)[nH]c(=O)c2[nH]cnc21 [3-methylxanthine]
Ki (Tg244440 [1]; Ki, 30 s): 14.6 ± 3.1 µM | ΔG^0 (Gibbs free energy of interaction) (Tg244440 [1]): -6.6 kcal/mol

Tg244440 (Toxoplasma gondii ME49)
Km (O=c1[nH]cnc2nc[nH]c12): 1 µM and 0.79 ± 0.06 µM

Cn1cnc2c(=O)cc[nH]c21 [9-Me,1-deazahypoxanthine]
Ki (Tg244440 [1]; 30 s, read-out: Ki): > 1000 µM | δ(ΔG^0) relative to Hypoxanthine (Tg244440 [1]): >3.61 kcal/mol

O=[N+]([O-])c1ccc(CSc2ncnc3c2ncn3[C@@H]2O[C@H](CO)[C@@H](O)[C@H]2O)cc1 [S-(4-nitrobenzyl)-6-thioinosine (NBMPR), S-(4-nitrobenzyl)-6-thioinosine]
Ki (Tg244440 [1]; Ki, 30 s): 78 ± 6 µM | ΔG^0 (Gibbs free energy of interaction) (Tg244440 [1]): -5.59 kcal/mol | δ(ΔG^0) relative to Adenosine (Tg244440 [1]): 0.0837 kcal/mol

Oc1ncnc2[nH]ncc12 [Allopurinol]
Ki (Tg244440 [1]; Ki, 30 s): 185 ± 15 µM | ΔG^0 (Gibbs free energy of interaction) (Tg244440 [1]): -5.09 kcal/mol | δ(ΔG^0) relative to Hypoxanthine (Tg244440 [1]): 2.61 kcal/mol

O=c1[nH]c(=O)c2[nH]ccc2[nH]1 [9-deazaxanthine]
Ki (Tg244440 [1]; Ki, 30 s): 48.2 ± 5.4 µM | ΔG^0 (Gibbs free energy of interaction) (Tg244440 [1]): -5.88 kcal/mol | δ(ΔG^0) relative to Xanthine (Tg244440 [1]; relative to Xanthine): 0.072 kcal/mol

B1: Tg244440 (Toxoplasma gondii ME49) (protein)
chain: MSTIEERAVAAQQMSKADDGKAPGMSRSDFVLAASFFLIAGVNSLIAWNVTLNLNPYFSTHCFSGNEWGNTLLAMFQLACMCIQIYLLKFGSGGAKKSYFFFAGIVNAITFTIFTPLVVYLPESAAVACMHICCFFLGIGSGVLQGGGFPYAASLPYNFCGFISTGQGLAAIIAFIWNTVFAFTLFDLDTRDGLVAMAWTSYGFAAVLSLVYFALFLVILKKPWAQGPFERQALEDVAAKEKAVQKAEAKKAEGDREAQYEQQDGNVFAVTAPTSIVDEESGVKVDGTEKRPARVFLRDAAPHLLNIGLTFFITLNNFPKIGPVGWNYNQQVNNHFIIMFGVFALGDVTGRFFPDLSQFSPKYFSWTMIPPKLVVPLCLLRSVFYVPFFLGYKLENTQVVNDFWFYVIIMLLFAFTQGWFCTLGFVYSMTSVRESERGVTGPLSVLCLSVGILAGLYLALAY
Km [7]: 1 µM
